{
  "source": "patent US6472392B1",
  "about": "“Triazole compounds and the use thereof as dopamine-D3 -ligands” (Abbott Laboratories, priority 1997, dated 2002)",
  "data": [
    {"smiles": "Cn1c(C=CCCN2CCN(c3cc(C(C)(C)C)nc(C(C)(C)C)n3)CC2)nnc1-c1ccccc1", "note": "[Example 21, 3-{4-[4-(2,6-Di-t-butylpyrimidin-4-yl)piperazin-1-yl]but-1-enyl}-4-methyl-5-phenyl-1,2,4-(4H)-triazole]", "values": [
      {"measurement": "melting point", "result": "156 to 161", "unit": "°C"}
    ]},
    {"smiles": "Cn1c(CCCCN2CCN(c3cc(C(C)(C)C)nc(C(C)(C)C)n3)CC2)nnc1-c1ccccc1", "note": "[Example 22, 3-{4-[4-(2,6-Di-t-butylpyrimidin-4-yl)piperazin-1-yl]butyl}-4-methyl-5-phenyl-1,2,4-(4H)-triazole]", "values": [
      {"measurement": "melting point", "result": "144 to 145", "unit": "°C"}
    ]}
  ]
}
